# Literature values, collected in patent publication US20260174718A1, “MODULATORS OF mTORC1 ACTIVITY AND USES THEREOF” (Navitor Pharmaceuticals, Inc., priority 2022, published 2026).
# System: mice
# Conditions: ketamine 2.5 mg/kg, intraperitoneally
compound,measurement,value
CNC1(c2ccccc2Cl)CCCCC1=O (stereo not shown) [ketamine],effect of ketamine challenge alone in the forced swim test,ineffective
